Data reported in patent US20210085640A1, “ACYLATED CATECHIN POLYPHENOLS AND METHODS OF THEIR USE FOR THE TREATMENT OF CANCER” (Flagship Pioneering Innovations V, Inc., priority 2018, published 2021).

Experiments:
Assay type in all cases: cell-based
[1] = tested on: A-431 skin cancer cells; assay: Cancer cell survival (CellTiter-Glo), A-431; conditions: Homo sapiens, A-431 cells, 72 h; for viability at 0.101 µM: 101 nM; for viability at 0.101 µM / viability at 0.318 µM / viability at 1 µM / viability at 3 µM / viability at 10 µM / viability at 32 µM / viability at 100 µM / viability at 316 µM / viability at 1000 µM: read-out: Cell survival at given concentration; for viability at 0.318 µM: 318 nM; for IC50: Table 9.1
Method in brief: (§1)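 Cells seeded at 4×10^3 cells/well, incubated overnight, then treated in triplicate at nine concentrations for 72 h at 37 C, 5% CO2. Viability by CellTiter-Glo luminescence, survival % normalized to untreated and medium controls; IC50 derived.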

[2] = tested on: A549 lung cancer cells; assay: Cancer cell survival (CellTiter-Glo), A549; conditions: Homo sapiens, 72 h; for viability at 0.101 µM: 101 nM; for viability at 0.101 µM / viability at 0.318 µM / viability at 1 µM / viability at 3 µM / viability at 10 µM / viability at 32 µM / viability at 100 µM / viability at 316 µM / viability at 1000 µM: read-out: Cell survival at given concentration; for viability at 0.318 µM: 318 nM; for IC50: Table 7.1
Method in brief: as §1

[3] = tested on: MCF7 breast cancer cells; assay: Cancer cell survival (CellTiter-Glo), MCF7; conditions: Homo sapiens, 72 h; for viability at 0.101 µM: 101 nM; for viability at 0.101 µM / viability at 0.318 µM / viability at 1 µM / viability at 3 µM / viability at 10 µM / viability at 32 µM / viability at 100 µM / viability at 316 µM / viability at 1000 µM: read-out: Cell survival at given concentration; for viability at 0.318 µM: 318 nM; for IC50: Table 5.1
Method in brief: as §1

[4] = tested on: T24 bladder cancer cells; assay: Cancer cell survival (CellTiter-Glo), T24; conditions: Homo sapiens; for viability at 0.101 µM: T-24, 101 nM; for viability at 0.101 µM / viability at 0.318 µM / viability at 1 µM / viability at 3 µM / viability at 10 µM / viability at 32 µM / viability at 100 µM / viability at 316 µM / viability at 1000 µM: 72 h, read-out: Cell survival at given concentration; for viability at 0.318 µM: T-24, 318 nM; for viability at 1 µM: T-24, 1 μM; for viability at 3 µM: T-24, 3 μM; for viability at 10 µM: T-24, 10 μM; for viability at 32 µM: T-24, 32 μM; for viability at 100 µM: T-24, 100 μM; for viability at 316 µM: T-24, 316 μM; for viability at 1000 µM: T-24, 1000 μM; for IC50: T-24, 72 h, Table 3.1, read-out: 1050
Method in brief: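 T24 cells seeded at 4×10^3 cells/well overnight, then exposed 72 h at 37 C, 5% CO2 to nine concentrations in triplicate. Survival measured by CellTiter-Glo luminescence relative to untreated and medium controls; IC50 derived.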

[5] = tested on: PC-3 prostate cancer cells; assay: Cancer cell survival (CellTiter-Glo), PC-3; conditions: Homo sapiens, PC-3 cells, 72 h; for viability at 0.101 µM: 101 nM; for viability at 0.101 µM / viability at 0.318 µM / viability at 1 µM / viability at 3 µM / viability at 10 µM / viability at 32 µM / viability at 100 µM / viability at 316 µM / viability at 1000 µM: read-out: Cell survival at given concentration; for viability at 0.318 µM: 318 nM
Method in brief: as §1

[6] = tested on: AGS stomach cancer cells; assay: Cancer cell survival (CellTiter-Glo), AGS; conditions: for viability at 0.101 µM / viability at 0.318 µM / viability at 1 µM / viability at 3 µM / viability at 10 µM / viability at 32 µM / viability at 100 µM / viability at 316 µM / viability at 1000 µM: 72 h; for viability at 0.101 µM: 101 nM; for viability at 0.101 µM / viability at 0.318 µM / viability at 316 µM / viability at 1000 µM: read-out: Cell survival at given concentration; for viability at 0.318 µM: 318 nM; for viability at 1 µM / viability at 3 µM / viability at 10 µM / viability at 32 µM / viability at 100 µM: Table 10.1, read-out: Cell survival at given concentration
Method in brief: as §1

[7] = tested on: Daudi lymphoma cancer cells; assay: Cancer cell survival (CellTiter-Glo), Daudi; conditions: Homo sapiens, 72 h; for viability at 0.101 µM: 101 nM; for viability at 0.101 µM / viability at 0.318 µM / viability at 1 µM / viability at 3 µM / viability at 10 µM / viability at 32 µM / viability at 100 µM / viability at 316 µM / viability at 1000 µM: read-out: Cell survival at given concentration; for viability at 0.318 µM: 318 nM; for IC50: Table 4.1
Method in brief: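 Daudi cells (4×10^3/well) were exposed for 72 h at 37 °C to nine concentrations of compound, added as 10× solutions spanning 1 μM–10 mM (fatty acids) or 100 nM–1 mM (others). CellTiter-Glo luminescence gave % survival versus untreated, medium-blank corrected; IC50 derived.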

[8] = tested on: HCT 116 colorectal cancer cells; assay: Cancer cell survival (CellTiter-Glo), HCT 116; conditions: Homo sapiens, HCT 116 cells, 72 h; for viability at 0.101 µM: 101 nM; for viability at 0.101 µM / viability at 0.318 µM / viability at 1 µM / viability at 3 µM / viability at 10 µM / viability at 32 µM / viability at 100 µM / viability at 316 µM / viability at 1000 µM: read-out: Cell survival at given concentration; for viability at 0.318 µM: 318 nM; for IC50: Table 6.1
Method in brief: as §1

O=c1cc(-c2ccc(O)c(O)c2)oc2cc(O)cc(O)c12 [luteolin]
viability at 0.101 µM [1]: 101%
viability at 0.318 µM [1]: 99%
viability at 1 µM [1]: 102%
viability at 3 µM [1]: 101%
viability at 10 µM [1]: 99%
viability at 32 µM [1]: 61%
viability at 100 µM [1]: 39%
viability at 316 µM [1]: 20%
viability at 1000 µM [1]: 4%
IC50 [1]: 71.8 µM
viability at 0.101 µM [2]: 96%
viability at 0.318 µM [2]: 98%
viability at 1 µM [2]: 100%
viability at 3 µM [2]: 100%
viability at 10 µM [2]: 101%
viability at 32 µM [2]: 84%
viability at 100 µM [2]: 37%
viability at 316 µM [2]: 13%
viability at 1000 µM [2]: 10%
IC50 [2]: 74.2 µM
viability at 0.101 µM [3]: 96%
viability at 0.318 µM [3]: 99%
viability at 1 µM [3]: 103%
viability at 3 µM [3]: 104%
viability at 10 µM [3]: 108%
viability at 32 µM [3]: 60%
viability at 100 µM [3]: 31%
viability at 316 µM [3]: 26%
viability at 1000 µM [3]: 24%
IC50 [3]: 36 µM
viability at 0.101 µM [4]: 99%
viability at 0.318 µM [4]: 102%
viability at 1 µM [4]: 103%
viability at 3 µM [4]: 94%
viability at 10 µM [4]: 85%
viability at 32 µM [4]: 35%
viability at 100 µM [4]: 9%
viability at 316 µM [4]: 8%
viability at 1000 µM [4]: 6%
IC50 [4]: 22.8 µM
viability at 0.101 µM [5]: 100%
viability at 0.318 µM [5]: 99%
viability at 1 µM [5]: 100%
viability at 3 µM [5]: 102%
viability at 10 µM [5]: 96%
viability at 32 µM [5]: 74%
viability at 100 µM [5]: 52%
viability at 316 µM [5]: 23%
viability at 1000 µM [5]: 23%
IC50 ([5]; Table 8.1): 93.5 µM
viability at 0.101 µM [6]: 99%
viability at 0.318 µM [6]: 100%
viability at 1 µM [6]: 103%
viability at 3 µM [6]: 106%
viability at 10 µM [6]: 106%
viability at 32 µM [6]: 77%
viability at 100 µM [6]: 29%
viability at 316 µM [6]: 8%
viability at 1000 µM [6]: 3%
IC50 ([6]; Table 10.1): 68.2 µM
viability at 0.101 µM [7]: 100%
viability at 0.318 µM [7]: 102%
viability at 1 µM [7]: 103%
viability at 3 µM [7]: 106%
viability at 10 µM [7]: 85%
viability at 32 µM [7]: 33%
viability at 100 µM [7]: 10%
viability at 316 µM [7]: 6%
viability at 1000 µM [7]: 16%
IC50 [7]: 21.6 µM
viability at 0.101 µM [8]: 100%
viability at 0.318 µM [8]: 98%
viability at 1 µM [8]: 101%
viability at 3 µM [8]: 97%
viability at 10 µM [8]: 93%
viability at 32 µM [8]: 29%
viability at 100 µM [8]: 2%
viability at 316 µM [8]: 6%
viability at 1000 µM [8]: 1%
IC50 [8]: 23.8 µM

O=c1c(O)c(-c2cc(O)c(O)c(O)c2)oc2cc(O)cc(O)c12 [myricetin]
viability at 0.101 µM [1]: 102%
viability at 0.318 µM [1]: 100%
viability at 1 µM [1]: 102%
viability at 3 µM [1]: 102%
viability at 10 µM [1]: 100%
viability at 32 µM [1]: 96%
viability at 100 µM [1]: 87%
viability at 316 µM [1]: 87%
viability at 1000 µM [1]: 78%
IC50 [1]: > 1000 µM
viability at 0.101 µM [2]: 100%
viability at 0.318 µM [2]: 100%
viability at 1 µM [2]: 99%
viability at 3 µM [2]: 104%
viability at 10 µM [2]: 101%
viability at 32 µM [2]: 99%
viability at 100 µM [2]: 99%
viability at 316 µM [2]: 98%
viability at 1000 µM [2]: 79%
IC50 [2]: > 1000 µM
viability at 0.101 µM [3]: 105%
viability at 0.318 µM [3]: 95%
viability at 1 µM [3]: 104%
viability at 3 µM [3]: 100%
viability at 10 µM [3]: 99%
viability at 32 µM [3]: 103%
viability at 100 µM [3]: 94%
viability at 316 µM [3]: 99%
viability at 1000 µM [3]: 87%
IC50 [3]: > 1000 µM
viability at 0.101 µM [4]: 101%
viability at 0.318 µM [4]: 98%
viability at 1 µM [4]: 106%
viability at 3 µM [4]: 102%
viability at 10 µM [4]: 96%
viability at 32 µM [4]: 9%
viability at 100 µM [4]: 0%
viability at 316 µM [4]: 0%
viability at 1000 µM [4]: 0%
IC50 [4]: 19.1 µM
viability at 0.101 µM [5]: 103%
viability at 0.318 µM [5]: 99%
viability at 1 µM [5]: 103%
viability at 3 µM [5]: 100%
viability at 10 µM [5]: 105%
viability at 32 µM [5]: 101%
viability at 100 µM [5]: 102%
viability at 316 µM [5]: 101%
viability at 1000 µM [5]: 88%
viability at 0.101 µM [6]: 107%
viability at 0.318 µM [6]: 103%
viability at 1 µM [6]: 110%
viability at 3 µM [6]: 103%
viability at 10 µM [6]: 109%
viability at 32 µM [6]: 111%
viability at 100 µM [6]: 108%
viability at 316 µM [6]: 107%
viability at 1000 µM [6]: 81%
viability at 0.101 µM [7]: 104%
viability at 0.318 µM [7]: 103%
viability at 1 µM [7]: 104%
viability at 3 µM [7]: 104%
viability at 10 µM [7]: 105%
viability at 32 µM [7]: 25%
viability at 100 µM [7]: 0%
viability at 316 µM [7]: 0%
viability at 1000 µM [7]: 0%
IC50 [7]: 28.1 µM
viability at 0.101 µM [8]: 101%
viability at 0.318 µM [8]: 104%
viability at 1 µM [8]: 107%
viability at 3 µM [8]: 105%
viability at 10 µM [8]: 102%
viability at 32 µM [8]: 31%
viability at 100 µM [8]: 0%
viability at 316 µM [8]: 0%
viability at 1000 µM [8]: 0%
IC50 [8]: 26.5 µM
